Data on eight molecules can be found in article PMC8372460 (European Journal of Medicinal Chemistry, 2021).

Data set [1] deals with SARS-CoV-2 M^pro (Severe acute respiratory syndrome coronavirus 2, UniProt P0DTD1). The class given is biochemical.
The conditions of data set [2]: concentrations ranging from 100 μg/mL to 10 ng/mL; cited from earlier work.
Data set [3] has as its system human normal fibroblast HFF-1 cells. As to the kind of experiment: In vitro cytotoxicity evaluation, MTT assay. The conditions noted are these: read-out: IC50 values towards HFF-1 cells, 48 h. Format: cell-based.
For data set [4], the system named is normal peripheral blood mononuclear cells. The conditions noted are these: cited from earlier work.
In data set [5] the test system is Vesicular Stomatitis Virus. To be noted: cited from earlier work.
Data set [6] deals with latent HIV-1. The conditions noted are these: bcl-2-transduced primary CD4+ T cell model; cited from earlier work.
The conditions of data set [7]: patients with hypoprothrombinemia, doses from 1 to 200 mg; cited from earlier work.
Data set [8] relates to Vero E6 cells. The conditions noted are these: under tested concentrations.
The conditions of data set [9]: Balb/C mice, 100 mg/kg, p.o., 10 times in 20 days.

Like-named read-outs stand apart in the source and are kept apart here.

For `CC(C)=CC[C@@H](O)C1=CC(=O)c2c(O)ccc(O)c2C1=O` [Compound 1, shikonin, reference compound], in data set [1] (10 μM), the “inhibitory effect towards M^pro (in words)” value was “moderate inhibitory effects”. In addition, in [2], the “cytotoxic effects in vitro” value is “significant cytotoxic effects”.
As a reminder, the IC50 is the concentration that inhibits the measured activity by half. In the case of `O=C1C=CC(=O)c2c(O)cccc21` [Compound 2, juglone], the “inhibitory effect towards M^pro (in words)” value in [1] (1 μM) is listed as “completely inactivated the main protease”; in [1] (10 μM) it was “completely loss of the hydrolytic efficacy”. In addition, the 50% inhibitory concentration (IC50) in [3] was less than 5 µM. Further, in data set [4], the “IC50, cytotoxicity against normal peripheral blood mononuclear cells” value was “more than 5 μg/mL”. Moreover, the “activity against Vesicular Stomatitis Virus” value in data set [5] is given as “active”. For the same molecule, the “reactivation of latent HIV-1” value in [6] is “potently reactivate latent HIV-1”.
For the molecule `CC1=CC(=O)c2ccccc2C1=O` [Compound 3, 2-Methyl-1,4-naphthoquinone, reference compound], in [1] (10 μM), the “inhibitory effect towards M^pro (in words)” value is “inactive”. Further, in data set [7], the “toxic effects in patients” value is on record as “no toxic effects were observed”.
Consider `O=C1C=C(O)C(=O)c2ccccc21` [Compound 7, 2-hydroxy-1,4-naphthoquione], for which the “inhibitory effect towards M^pro (in words)” value in data set [1] (10 μM) is reported as “did not exhibit any detectable inhibition”.
For `COc1cccc2c1C(=O)C(C(C)=O)=CC2=O` [Compound 15, 2-acetyl-8-methoxy-1,4-naphthoquinone], the “toxicity towards host Vero E6 cells (in words)” value in [8] is recorded as “non-toxic”. Besides, in [9], the animal deaths entry was “no animal deaths” and the “body weight change compared with control animals” value was “minor body weight loss”. For the same molecule, the “toxicity symptoms (reduced activity, hypothermia, body shivering)” value in [9] (every other day) is given as “did not show any obvious toxicity symptoms”.
Consider `Cc1cc(O)c2c(c1)C(=O)C=CC2=O` [Compound 16, 7-Methyl juglone], for which, in [1], the “Mpro inhibition rate at different conc. (%) 0.1 μM” value came to 21.7%, the “Mpro inhibition rate at different conc. (%) 1 μM” value came out at 99.6% and the “inhibitory effect towards M^pro (in words)” value is reported as “completely loss of the hydrolytic efficacy”. In data set [3], the IC50 was less than 5 µM.
As to `CC1=CC(=O)c2c(O)cccc2C1=O` [Compound 17, Plumbagin], the “inhibitory effect towards M^pro (in words)” value in [1] (10 μM) is “inactive”.
Regarding `COc1cc(C)cc2c1C(=O)C=CC2=O` [Compound 22, 7-methyl juglone methyl ether], the “inhibitory effect towards M^pro (in words)” value in data set [1] is “did not show any inhibitory effects”.
